# Laboratory results reported in patent EP0490581B1, “Cosmetic composition” (UNILEVER PLC, priority 1990, dated 1992).
# Tested on: isolated human hair follicles
# Experiment: in vitro hair follicle growth test (elongation of isolated hair follicles in culture medium)
# Assay type: cell-based
# Method: The effect of compounds on hair growth was assessed using an in vitro test which measures the elongation of isolated human hair follicles in a culture medium.
# This test includes the important step of isolating hair follicles having an undamaged hair bulb from skin, preferably from human skin, by microdissection.
# The critical step of separating the hair follicle with intact undamaged hair bulb from the subcutaneous fatty tissue in which it is situated accordingly involves severing the hair shaft of the follicle at a point below the epidermis of skin surface, so as to leave the hair bulb intact and undamaged while still bearing a portion of the hair shaft.
# Preferably, the hair shaft of the follicle is severed at the dermal-subcutaneous fat interface.
# Any suitable cutting instrument can be employed to sever the hair shaft in this manner, but a keratotome or a scalpel are preferred.
# The hair bulb with a hair shaft stump attached is then isolated from the skin by mechanically separating the hair from loosely adhering subcutaneous fat which normally surrounds the hair bulb. This is achieved after the dermis or upper layer of the skin has been separated and removed, to avoid damaging the hair bulb as it is pulled away.
# The hair bulb together with hair shaft stump attached, is then transferred in an otherwise undamaged and fully functioning, viable state to a nutrient medium.
# The hair follicles isolated by the technique described herein are transferred to a suitable culture medium for subsequent testing of substances that can then influence their future development.
# The procedure now to be described represents a preferred method of culture and testing of hair growth.
# In accordance with the preferred method of culture, isolated hair follicles are maintained in 500µl of Williams E medium, either with or without a test hair growth substance, at 37°C in an atmosphere of 5% CO₂ + 95% air in individual wells of a 24 multiwell dish (Corning), which permits detailed measurements to be made of the length of individual hair follicles.
# Williams E medium is available from FLOW Laboratory under Catalogue No. 12-502. The formula of Williams E medium is described by Williams GM, et al., in Experimental Cell Research 69 (1971) on page 106.
# Hair shaft length measurements can be made on these follicles, using a Nikon Diaphot inverted binocular or similar microscope with eye piece measuring graticules, […], during which time the follicles will signficiantly increase in length in response to a hair growth stimulant.
# The response of an isolated hair follicle to a test substance, can accordingly be assessed by mesuring the increase in length, if any, in the presence of a test substance against a control. […]
smiles,measurement,setting,value
"NC(=O)CC[C@H](N)C(=O)O [Glutamine, glutamine]",activity at 2000 µM,"144 h, 2mM in Williams E medium supplemented with glucose (50mM), relative to a control value of 1.0, mean of 5 follicles from each of 5 human subjects (25 follicles), read-out: Hair follicle growth after 6 days",400%
same,"hair growth, as compared with the control","summary in words of the table's results, Williams E medium supplemented with glucose (50mM)",most effective
CC(O)CC(=O)O (stereo not shown) [Na 3-hydroxybutyrate],activity at 1000 µM,"144 h, 1 mM in Williams E medium supplemented with glucose (50mM), relative to a control value of 1.0, mean of 5 follicles from each of 5 human subjects (25 follicles), read-out: Hair follicle growth after 6 days",280%
CCCCCCCCCCCCCCCC(=O)O [Na palmitate],activity at 500 µM,"144 h, 0.5mM in Williams E medium supplemented with glucose (50mM), relative to a control value of 1.0, mean of 5 follicles from each of 5 human subjects (25 follicles), read-out: Hair follicle growth after 6 days",180%
